Data on three compounds can be found in ChEMBL document CHEMBL1926613, “Bisubstrate analogue inhibitors of 6-hydroxymethyl-7,8-dihydropterin pyrophosphokinase: New design with improved properties” (Bioorg Med Chem, 2012).

The target in assay [1] is T1, 2-amino-4-hydroxy-6-hydroxymethyldihydropteridine pyrophosphokinase (Escherichia coli (strain K12), UniProt P26281).
T1 sequence (P26281 whole entry): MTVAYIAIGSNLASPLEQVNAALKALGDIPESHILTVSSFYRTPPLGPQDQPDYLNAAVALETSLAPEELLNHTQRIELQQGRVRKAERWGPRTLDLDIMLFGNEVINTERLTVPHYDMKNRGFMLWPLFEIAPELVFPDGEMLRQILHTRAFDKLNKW
The experiment in a line: Binding affinity to Escherichia coli HPPK using 6-hydroxymethyl-7,8-dihydropterin as substrate and ATP by fluorometric analysis.

Assay [2] has as its target T1, 2-amino-4-hydroxy-6-hydroxymethyldihydropteridine pyrophosphokinase. The experiment in a line: Inhibition of Escherichia coli HPPK using 6-hydroxymethyl-7,8-dihydropterin as substrate and [32P]-ATP.

As for `Nc1nc2ncc(CNCCN3CCC(SC[C@H]4O[C@@H](n5cnc6c(N)ncnc65)[C@H](O)[C@@H]4O)CC3)nc2c(=O)[nH]1`, in assay [1], the Kd is over 150000 nM. In addition, in assay [2], the IC50 was over 100000 nM.

For `CC1(C)Nc2nc(N)[nH]c(=O)c2N=C1C(=O)NCCN1CCC(SC[C@H]2O[C@@H](n3cnc4c(N)ncnc43)[C@H](O)[C@@H]2O)CC1`, binding in assay [1] was characterised by a dissociation constant (Kd) of 2550 nM. The compound further had a concentration for half-maximal inhibition (IC50) in assay [2] of 3160 nM.

With `Nc1nc2ncc(COP(=O)(O)OP(=O)(O)OP(=O)(O)OP(=O)(O)OC[C@H]3O[C@@H](n4cnc5c(N)ncnc54)[C@H](O)[C@@H]3O)nc2c(=O)[nH]1`, in assay [1], the affinity, expressed as Kd, was 470 nM. This compound also gave an IC50 in assay [2] of 440 nM.

Broadly, the Kd is a measure of binding affinity in units of concentration. Low readings indicate tighter binding, high ones weaker binding. The IC50 is the concentration that inhibits the measured activity by half.
